In PMC7838034 (Acta Pharmaceutica Sinica. B, 2020):

Assays:
PARP1 = PARP1 (Homo sapiens, UniProt P09874); test: PARP1 inhibition assay; type: biochemical; conditions: tested in duplicate, average; for inhibition at 1 µM: read-out: Inhibition rate PARP1, 1 μmol/L; for inhibition at 10 µM: read-out: Inhibition rate PARP1, 10 μmol/L
[1] = biological target: recombinant BRD4(BD1 + BD2) (Homo sapiens, UniProt O60885); test: BRD4 inhibition assay; type: binding; conditions: tested in duplicate, average; for inhibition at 1 µM: read-out: Inhibition rate BRD4, 1 μmol/L; for inhibition at 10 µM: read-out: Inhibition rate BRD4, 10 μmol/L
MDA-MB-468 cells = test: Cell viability assay; type: cell-based, human; conditions: Homo sapiens, MDA-MB-468, 24 h, read-out: Anti-proliferative activity (IC50)

Chain of PARP1 (P09874 whole entry): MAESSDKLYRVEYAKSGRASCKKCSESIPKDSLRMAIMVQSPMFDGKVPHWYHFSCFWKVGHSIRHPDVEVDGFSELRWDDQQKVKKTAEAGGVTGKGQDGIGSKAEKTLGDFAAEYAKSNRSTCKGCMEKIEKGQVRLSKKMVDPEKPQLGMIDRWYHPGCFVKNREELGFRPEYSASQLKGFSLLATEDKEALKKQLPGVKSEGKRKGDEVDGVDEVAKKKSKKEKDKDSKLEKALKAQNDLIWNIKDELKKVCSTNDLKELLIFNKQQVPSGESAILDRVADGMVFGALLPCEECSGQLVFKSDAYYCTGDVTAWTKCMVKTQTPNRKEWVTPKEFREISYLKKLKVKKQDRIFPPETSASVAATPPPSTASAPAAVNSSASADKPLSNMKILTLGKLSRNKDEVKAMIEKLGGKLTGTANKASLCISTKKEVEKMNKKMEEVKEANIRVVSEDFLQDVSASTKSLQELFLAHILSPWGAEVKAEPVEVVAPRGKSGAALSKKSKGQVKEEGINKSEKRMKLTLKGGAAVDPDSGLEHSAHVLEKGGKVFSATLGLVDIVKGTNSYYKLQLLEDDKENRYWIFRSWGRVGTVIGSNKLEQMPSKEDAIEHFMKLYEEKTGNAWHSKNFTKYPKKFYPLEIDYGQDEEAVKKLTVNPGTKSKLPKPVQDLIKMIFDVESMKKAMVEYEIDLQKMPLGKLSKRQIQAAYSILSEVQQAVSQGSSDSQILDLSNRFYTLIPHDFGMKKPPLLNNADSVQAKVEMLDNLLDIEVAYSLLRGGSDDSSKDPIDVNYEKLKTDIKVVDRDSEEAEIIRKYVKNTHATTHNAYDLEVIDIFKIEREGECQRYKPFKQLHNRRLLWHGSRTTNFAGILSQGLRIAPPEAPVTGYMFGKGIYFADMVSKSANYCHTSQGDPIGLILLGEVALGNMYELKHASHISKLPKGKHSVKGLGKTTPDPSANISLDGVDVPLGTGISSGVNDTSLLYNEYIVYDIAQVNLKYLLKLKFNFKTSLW

Compound | inhibition at 1 µM (PARP1) [%] | inhibition at 10 µM (PARP1) [%] | inhibition at 1 µM [1] [%] | inhibition at 10 µM [1] [%] | IC50 (MDA-MB-468 cells) [µM] | Inhibition rate PARP1 (PARP1; 1 μmol/L) [%] | Inhibition rate PARP1 (PARP1; 10 μmol/L) [%] | Inhibition rate BRD4 ([1]; 1 μmol/L) [%] | Inhibition rate BRD4 ([1]; 10 μmol/L) [%]
COc1cc(OC)c2c(=O)[nH]c(-c3ccc(C(=O)N4CCN(C(=O)C5CC5)CC4)cc3F)nc2c1 [Compound 15a, 2-(4-(4-(Cyclopropanecarbonyl)piperazine-1-carbonyl)-2-fluorophenyl)-5,7-dimethoxyquinazolin-4(3H)-one] | 14 | 72 | 7 | 68 | – | – | – | – | –
COc1cc(OC)c2c(=O)[nH]c(-c3cc(Cl)ccc3OCCCCCOc3ccccc3C(N)=O)nc2c1 [Compound 19e, 2-((5-(4-Chloro-2-(5,7-dimethoxy-4-oxo-3,4-dihydroquinazolin-2-yl)phenoxy)pentyl)oxy)benzamide] | 18 | 71 | 4 | 55 | 15.3 ± 3.6 | – | – | – | –
O=C(c1cc(Cc2n[nH]c(=O)c3ccccc23)ccc1F)N1CCN(C(=O)C2CC2)CC1 [Olaparib, reference compound] | – | – | – | – | 1.1 ± 1.4 | – | – | – | –
COc1cc(OC)c2c(=O)[nH]c(-c3ccc(N4CCOCC4)cc3)nc2c1 [Compound 5e, 5,7-Dimethoxy-2-(4-morpholinophenyl)quinazolin-4(3H)-one] | 2 | 36 | 12 | 70 | – | – | – | – | –
O=c1[nH]c(-c2c[nH]c3ncccc23)nc2ccccc12 [Compound 5j, 2-(1H-Pyrrolo[2,3-b]pyridin-3-yl)quinazolin-4(3H)-one] | – | – | 6 | – | – | – | – | – | –
COc1cc(OC)c2c(=O)[nH]c(-c3ccc(OCCOn4nnc5ccccc54)c(Cl)c3)nc2c1 [Compound 19p, 2-(4-(2-((1H-Benzo[d][1,2,3]triazol-1-yl)oxy)ethoxy)-3-chlorophenyl)-5,7-dimethoxyquinazolin-4(3H)-one] | 3 | 6 | 3 | 44 | > 30 | – | – | – | –
COc1cc(OC)c2c(=O)[nH]c(-c3ccc(OCCOc4ccccc4C(N)=O)c(F)c3)nc2c1 [Compound 19h, 2-(2-(4-(5,7-Dimethoxy-4-oxo-3,4-dihydroquinazolin-2-yl)-2-fluorophenoxy)ethoxy)benzamide] | 31 | 65 | 12 | 62 | 11.8 ± 3.4 | – | – | – | –
COc1cc(OC)c2c(=O)[nH]c(-c3cc(C)c(OCCOn4nnc5ccccc54)c(C)c3)nc2c1 [Compound 19i, 2-(4-(2-((1H-Benzo[d][1,2,3]triazol-1-yl)oxy)ethoxy)-3,5-dimethylphenyl)-5,7-dimethoxyquinazolin-4(3H)-one] | 11 | 18 | 18 | 61 | > 30 | – | – | – | –
COc1cc(OC)c2c(=O)[nH]c(-c3cc(C)c(OCCOc4ccc5cn[nH]c5c4)c(C)c3)nc2c1 [Compound 19m, 2-(4-(2-((1H-Indazol-6-yl)oxy)ethoxy)-3,5-dimethylphenyl)-5,7-dimethoxyquinazolin-4(3H)-one] | 7 | 11 | 15 | 46 | > 30 | – | – | – | –
O=C(c1cccc(-c2nc3ccccc3c(=O)[nH]2)c1)N1CCN(C(=O)C2CC2)CC1 [Compound 11b, 2-(3-(4-(Cyclopropanecarbonyl)piperazine-1-carbonyl)phenyl)quinazolin-4(3H)-one] | 16 | 70 | 12 | 43 | – | – | – | – | –
COc1cc(OC)c2c(=O)[nH]c(-c3cc(F)ccc3OCCOc3ccccc3C(N)=O)nc2c1 [Compound 19s, 2-(2-(2-(5,7-Dimethoxy-4-oxo-3,4-dihydroquinazolin-2-yl)-4-fluorophenoxy)ethoxy)benzamide] | 12 | 65 | 8 | 74 | 8.7 ± 5.2 | – | – | – | –
O=c1[nH]c(-c2ccc(N3CCOCC3)cc2)nc2ccccc12 [Compound 5f, 2-(4-Morpholinophenyl)quinazolin-4(3H)-one] | 0 | 29 | 12 | 55 | – | – | – | – | –
CNC(=O)c1ccc(-c2nc3ccccc3c(=O)[nH]2)cc1 [Compound 5b, N-Methyl-4-(4-oxo-3,4-dihydroquinazolin-2-yl)benzamide] | 0 | 15 | 0 | 22 | – | – | – | – | –
2-(4-((4-(Cyclopropanecarbonyl)piperazin-1-yl)methyl)phenyl)-5,7-dimethoxyquinazolin-4(3H)-one [Compound 11c] | – | – | – | – | – | 8 | 60 | 9 | 47
O=C(c1ccc(-c2nc3ccccc3c(=O)[nH]2)c(F)c1)N1CCn2c(nnc2C(F)(F)F)C1 [Compound 15d, 2-(2-Fluoro-4-(3-(trifluoromethyl)-5,6,7,8-tetrahydro-[1,2,4]triazolo[4,3-a]pyrazine-7-carbonyl)phenyl)quinazolin-4(3H)-one] | – | 60 | 3 | 18 | – | – | – | – | –
COc1cc(OC)c2c(=O)[nH]c(-c3ccc(C(=O)N4CCn5c(nnc5C(F)(F)F)C4)cc3F)nc2c1 [Compound 15c, 2-(2-Fluoro-4-(3-(trifluoromethyl)-5,6,7,8-tetrahydro-[1,2,4]triazolo[4,3-a]pyrazine-7-carbonyl)phenyl)-5,7-dimethoxyquinazolin-4(3H)-one] | 11 | 55 | 5 | 30 | – | – | – | – | –
COc1cc(OC)c2c(=O)[nH]c(-c3cccc4nc[nH]c34)nc2c1 [Compound 5k, 2-(1H-Benzo[d]imidazole-7-yl)-5,7-dimethoxyquinazolin-4(3H)-one] | 6 | 39 | 8 | 42 | – | – | – | – | –
NC(=O)c1ccc(-c2nc3ccccc3c(=O)[nH]2)cc1 [Compound 5d, 4-(4-Oxo-3,4-dihydroquinazolin-2-yl)benzamide] | 0 | 1 | 2 | 19 | – | – | – | – | –
COc1cc(OC)c2c(=O)[nH]c(-c3ccc(C(N)=O)cc3)nc2c1 [Compound 5c, 4-(5,7-Dimethoxy-4-oxo-3,4-dihydroquinazolin-2-yl)benzamide] | 0 | 2 | 1 | 18 | – | – | – | – | –
COc1cccc2nc(-c3ccc(C(=O)N4CCN(C(=O)C5CC5)CC4)cc3F)[nH]c(=O)c12 [Compound 15e, 2-(4-(4-(Cyclopropanecarbonyl)piperazine-1-carbonyl)-2-fluorophenyl)-5-methoxyquinazolin-4(3H)-one] | 7 | – | 9 | – | – | – | – | – | –
CNC(=O)c1ccc(-c2nc3cc(OC)cc(OC)c3c(=O)[nH]2)cc1 [Compound 5a, 4-(5,7-Dimethoxy-4-oxo-3,4-dihydroquinazolin-2-yl)-N-methylbenzamide] | 4 | 25 | 1 | 36 | – | – | – | – | –
COc1cc(OC)c2c(=O)[nH]c(-c3c[nH]c4ncccc34)nc2c1 [Compound 5i, 5,7-Dimethoxy-2-(1H-pyrrolo[2,3-b]pyridin-3-yl)quinazolin-4(3H)-one] | 8 | – | – | – | – | – | – | – | –
COc1cccc2nc(-c3cccc(C(=O)N4CCN(C(=O)C5CC5)CC4)c3)[nH]c(=O)c12 [Compound 11e, 2-(3-(4-(Cyclopropanecarbonyl)piperazine-1-carbonyl)phenyl)-5-methoxyquinazolin-4(3H)-one] | 4 | 46 | 8 | 30 | – | – | – | – | –
COc1cc(OC)c2c(=O)[nH]c(-c3ccc4cc[nH]c4c3)nc2c1 [Compound 5g, 2-(1H-Indol-6-yl)-5,7-dimethoxyquinazolin-4(3H)-one] | 9 | 34 | 3 | 13 | – | – | – | – | –
2-(4-((4-(Cyclopropanecarbonyl)piperazin-1-yl)methyl)phenyl)quinazolin-4(3H)-one [Compound 11d] | – | – | – | – | – | 18 | 71 | 4 | 41
O=C(c1ccc(-c2nc3ccccc3c(=O)[nH]2)c(F)c1)N1CCN(C(=O)C2CC2)CC1 [Compound 15b, 2-(4-(4-(Cyclopropanecarbonyl)piperazine-1-carbonyl)-2-fluorophenyl)quinazolin-4(3H)-one] | 6 | ≤ 87 | 4 | 53 | – | – | – | – | –
COc1cc(OC)c2c(=O)[nH]c(-c3cccc(C(=O)N4CCN(C(=O)C5CC5)CC4)c3)nc2c1 [Compound 11a, 2-(3-(4-(Cyclopropanecarbonyl)piperazine-1-carbonyl)phenyl)-5,7-dimethoxyquinazolin-4(3H)-one] | 6 | 57 | 4 | 50 | – | – | – | – | –
O=c1[nH]c(-c2cccc3nc[nH]c23)nc2ccccc12 [Compound 5h, 2-(1H-Benzo[d]imidazole-7-yl)quinazolin-4(3H)-one] | 3 | 10 | 0 | 11 | – | – | – | – | –
COc1cc(OC)c2c(=O)[nH]c(-c3ccc(OCOc4ccccc4C(N)=O)cc3)nc2c1 [Compound 19v, 2-((4-(5,7-Dimethoxy-4-oxo-3,4-dihydroquinazolin-2-yl)phenoxy)methoxy)benzamide] | 19 | 51 | 29 | 60 | – | – | – | – | –
